Patent US12679827B2, “Pyrimidine compounds and their pharmaceutical uses” (National Health Research Institutes, priority 2020, dated 2026)

Legend:
[1] = system: MYCN; assay: Western blot, MYCN protein level in SK-N-BE(2) cells; format: cell-based, human; conditions: SK-N-BE(2) (neuroblastoma) cells; 50, 200, 500, 1000 nM; 24 hours; FIG. 1
Experimental: (§1) Compounds 41 and 86, both covered by Formula (I), were tested to assess their efficacies in reducing the level of cMYC oncoprotein in a human small-cell-lung-cancer (“SCLC”) cell line NCI-H82 (ATCC® HTB-175, USA) and the level of MYCN oncoprotein in a human neuroblastoma cell line SK-N-BE(2) (ATCC® CRL-2271, USA) as follows.
(§2) NCI-H82 was maintained in RPMI1640 medium (ThermoFisher Scientific, USA) supplemented with 10% fetal bovine serum (FBS, HyClone, USA) and antibiotics. SK-N-BE(2) was maintained in Minimum Essential Medium (MEM, ThermoFisher Scientific, USA) supplemented with 10% FBS (HyClone, USA) and antibiotics. The cancer cells from each cell line were treated with each of compounds 41 and 86 at 4 different compound concentrations, i.e., 50 nM, 200 nM, 500 nM, and 1000 nM. After 24 hours, each cancer cell solution was washed with 1× phosphate buffered saline (PBS), lysed in 1× Laemmli protein sample buffer, and boiled at 100° C. for 10 minutes. Each lysate was separated by SDS-PAGE, transferred to polyvinylidene fluoride (PVDF, Millipore, USA) membrane, and blotted with antibodies. Primary antibodies used for Western blotting were cMYC (Cell Signaling, Cat No. 5605S), MYCN (Cell Signaling, 9405S), PARP-1 (Abcam, ab32378), and GAPDH (Genetex, GTX100118). […]

[2] = system: NCI-H1299; assay: Proliferation inhibition of various cancer cells (PrestoBlue), NCI-H1299; format: cell-based; conditions: Homo sapiens, Non-small cell lung cancer, 72 hours
Experimental: (§3) The efficacies of compounds 41 and 86 of Formula (I) in inhibiting proliferation of eleven types of cancer cells were determined using PrestoBlue™ Cell Viability Reagent (ThermoFisher Scientific, USA). The eleven types of cancer cells are small cell lung cancer, non-small cell lung cancer, liver cancer, pancreatic cancer, breast cancer, colon cancer, prostate cancer, neuroblastoma, brain cancer, leukemia, and cholangiocarcinoma.
(§4) More specifically, […], i.e., NCI-H82 (ATCC® HTB-175), NCI-H446 (ATCC® HTB-171), NCI-H69 (ATCC® HTB-119), NCI-H146 (ATCC® HTB-173), NCI-H1792 (ATCC® CRL-5895), NCI-H1299 (ATCC® CRL-5803), SNU-398 (ATCC® CRL-2233), PSN-1 (ATCC® CRL-3211), MIA PaCa-2 (ATCC® CRL-1420), MDA-MB-231 (ATCC® HTB-26), LOVO (ATCC® CCL-229), COLO 205 (ATCC® CCL-222), PC-3 (ATCC® CRL-1435), SK-N-BE(2) (ATCC® CRL-2271), D341 Med (ATCC® HTB-187), K562 (ATCC® CCL-243), MOLM-13 (DSMZ-German Collection of Microorganisms and Cell Cultures GmbH, ACC No. 554), and SNU-478 (KCLB 00478), were seeded at a density of 4000-10000 cells per well in 96-well plates for 24 hours. The cancer cells were then treated with each compound at various concentrations (0-10 μM), followed by incubation for another 72 hours. IC50 values were computed based on duplicated 8-point titration.

[3] = system: LOVO; assay: Proliferation inhibition of various cancer cells (PrestoBlue), LOVO; format: cell-based; conditions: Homo sapiens, Colon cancer, 72 hours
Experimental: as §3, §4

[4] = system: D341 Med; assay: Proliferation inhibition of various cancer cells (PrestoBlue), D341 Med; format: cell-based; conditions: Brain cancer, 72 hours
Experimental: as §3, §4

[5] = system: MIA PaCa-2; assay: Proliferation inhibition of various cancer cells (PrestoBlue), MIA PaCa-2; format: cell-based; conditions: Homo sapiens, Pancreatic cancer, 72 hours
Experimental: as §3, §4

[6] = system: cMYC; assay: Western blot, cMYC protein level in NCI-H82 cells; format: cell-based, human; conditions: NCI-H82 (SCLC) cells; 50, 200, 500, 1000 nM; 24 hours; FIG. 1
Experimental: as §1, §2

[7] = system: NCI-H446; assay: Proliferation inhibition of various cancer cells (PrestoBlue), NCI-H446; format: cell-based; conditions: Homo sapiens, Small cell lung cancer, 72 hours
Experimental: as §3, §4

[8] = system: NCI-H69; assay: Proliferation inhibition of various cancer cells (PrestoBlue), NCI-H69; format: cell-based; conditions: Homo sapiens, Small cell lung cancer, 72 hours
Experimental: as §3, §4

[9] = system: SNU-398; assay: Proliferation inhibition of various cancer cells (PrestoBlue), SNU-398; format: cell-based; conditions: Homo sapiens, Liver cancer, 72 hours
Experimental: as §3, §4

[10] = system: MDA-MB-231; assay: Proliferation inhibition of various cancer cells (PrestoBlue), MDA-MB-231; format: cell-based; conditions: Homo sapiens, Breast cancer, 72 hours
Experimental: as §3, §4

[11] = system: NCI-H82; assay: Proliferation inhibition of various cancer cells (PrestoBlue), NCI-H82; format: cell-based; conditions: Homo sapiens, Small cell lung cancer, 72 hours
Experimental: as §3, §4

[12] = system: NCI-H69; assay: Small-cell-lung cancer cell proliferation inhibition assay (PrestoBlue), NCI-H69; format: cell-based; conditions: Homo sapiens, MYCN amplified SCLC cells, 72 hours
Experimental: Small cell lung cancer cells NCI-H82 (ATCC HTB-175, cMYC amplified), NCI-H446 (ATCC® HTB-171, cMYC amplified), and NCI-H69 (ATCC® HTB-119, MYCN amplified) were seeded at the density of 5000-10000 cells per well in 96-well plates. After 24 hours, the cancer cells were treated with each compound at various concentrations (0-10 μM) and then incubated for another 72 hours. IC50 values were computed based on duplicated 8-point titration.

IC50 [2] | IC50 [3] | IC50 [4] | IC50 [5] | IC50 [7] | IC50 [8] | IC50 [9] | IC50 [10] | IC50 [11] | IC50 [12] | Compound | protein level of MYCN [1] | protein level of cMYC [6]
< 1000 nM | < 10000 nM | < 200 nM | < 1000 nM | < 200 nM | < 200 nM | < 200 nM | < 300 nM | < 200 nM | – | CCN1CCN(c2cc(Nc3cc(C)[nH]n3)nc(N[C@H]3CCN(C(=O)c4ccc(Cl)cc4F)C3)n2)CC1 [Compound 41] | greatly reduced | greatly reduced
< 1000 nM | < 10000 nM | < 300 nM | < 1000 nM | < 200 nM | < 200 nM | < 200 nM | < 300 nM | < 300 nM | < 1000 nM | CCN1CCN(c2cc(Nc3cc(C)[nH]n3)nc(NC3CCN(C(=O)c4cccc(Cl)c4F)CC3)n2)CC1 [Compound 86] | greatly reduced | greatly reduced
